Entries after “also recorded” stand apart in the source; their conditions may differ.
Columns and labels:
[1] = in vivo application; Fishman et al. 2002; cited from earlier work
[2] = test system: ERα protein in T47D cells; experiment: ERα protein level in T47D cells; format: cell-based, human; details: not shown
Protocol: (§1) Western Blot Analysis: Cells were washed three times in cold 1×PBS, and collected by scraping on ice. Western blot analysis was performed as we described before with the chemiluminescence method (41). Antibodies used in this study were: ERα (NeoMarkers, Ab-15), Cyclin A (Santa Cruz Biotech, H-432), Cyclin B1 (Santa Cruz Biotech, H-433), Cyclin E (Upstate Biotech, HE-12), p27 (Santa Cruz Biotech, F-8). ERα antibody was used at 1:100 dilutions. Cyclin A, cyclin B1 and p27 antibodies were used at 1:500 dilutions. Cyclin E antibody was used at 1:1000 dilutions.

MCF-7 cells [3] = experiment: Apoptosis by propidium iodide staining and flow cytometry (sub-diploid events); format: cell-based, human; details: 100 μM
Protocol: (§2) Flow Cytometry and Apoptosis Analysis: Cells were detached from tissue culture plates by trypsin treatment. Cells were collected by centrifugation at 1200 g for 5 minutes and washed once with PBS. Staining of cells with propidium iodide and analysis on a flow cytometer (FACScan, Becton Dickinson, Research Triangle Park, N.C.) was performed as described before (42). Data were analyzed with CellQuest software (Becton Dickinson, Research Triangle Park, N.C.). The percentage of cells appearing with a ploidy level smaller than a diploid content was calculated as an estimate of cells undergoing apoptosis.

[4] = test system: estrogen receptor α (ERα); experiment: ERα protein level by Western blot in MCF-7 cells; format: cell-based, human
Protocol: Western Blot Analysis: Cells were washed three times in cold 1×PBS, and collected by scraping on ice. Western blot analysis was performed as we described before with the chemiluminescence method (41). […] Cyclin A, cyclin B1 and p27 antibodies were used at 1:500 dilutions. Cyclin E antibody was used at 1:1000 dilutions.

[5] = test system: ERE promoter activity (transcriptional activity of endogenous ERα); experiment: Reporter gene assay pERE-Tk-Luc in MCF-7 cells; format: cell-based, human; details: MCF-7 transfected with pERE-Tk-Luc; 12 hours
Protocol: (§3) Transfections and Reporter Gene Assay: Transient transfection was performed using FuGene6 (Roche, Indianapolis, Ind.) transfection reagent according to manufacturer's protocol. Circular reporter plasmid pERE-Tk-Luc at 10 μg and 10 μg of pCMV-β-Gal (as a measure of efficiency of trasnfection) were transfected with 50 μl of FuGene6. Cells were split into 6 well plates 12 hours after transfection, and incubated overnight in fresh medium. […] Luciferase and β-galactosidase activities were measured as described before (43, 44).

T47D cells = experiment: Anchorage-dependent growth assay; format: cell-based, human; details: 100 μM, three days
Hs578T cells = experiment: Apoptosis by propidium iodide staining and flow cytometry; format: cell-based, human; details: 100 μM, two days
Protocol: as §2

MCF-7 cells [6] = experiment: Thymidine incorporation assay; format: cell-based, human; details: treated 24 hours before thymidine
Protocol: Thymidine Incorporation Assay. Thymidine incorporation assays were performed as described (Zhang, Y., Wang, Z., and Ravid, K. The cell cycle in polyploid megakaryocytes is associated with reduced activity of cyclin B1-dependent cdc2 kinase. J Biol Chem, 271: 4266-4272, 1996) with modifications. Rat bone marrow cells were cultured in 25 cm^2 flasks at a concentration of 20×10^6 cells per 2 ml. After drug treatment for 24 hours, cells were incubated with ^3H-thymidine at a final concentration of 3 μCi/ml for 8 hours. For MCF-7 cells, cells were cultured in 6-well plates and incubated with ^3H-thymidine for 2 hours after drug treatment. Cells were divided into two portions, sixty percent of which were processed as described (Id.) to obtain tritium counts. The rest of the cells were lysed with Western blotting lysis buffer and protein concentrations were determined by Bio-Rad protein assay reagent (Bio-Rad, Hercules, Calif.). Tritium counts were normalized with corresponding protein concentrations to account for cell number variations.

CMV promoter = experiment: Reporter gene assay pCMV-β-Gal in MCF-7 cells; format: cell-based, human; details: MCF-7 transfected with pCMV-β-Gal; 12 hours
Protocol: as §3

MCF-7 cells [7] = experiment: Anchorage-dependent growth assay (viable cell count, Trypan Blue); format: cell-based, human; details: MCF-7
Protocol: Anchorage-dependent growth assay: Cells were plated into 6-well plates and grown overnight before treatments. The seeding concentration of MCF-7 cells was 2×10^5/well, which was determined during preliminary experiments as not allowing the cells to reach confluency within 3 days. Cells were treated either with vehicle or ligands, as indicated. Cells were detached by incubation with trypsin (Invitrogen, Carlsbad, Calif.) and counted with a hemacytometer before or after treatment.

[8] = test system: cyclin A, cyclin B1, cyclin E, p27; experiment: Western blot of cyclins and Cdk inhibitor in MCF-7 cells; format: cell-based, human; details: 100 μM
Protocol: as §1

[9] = test system: estrogen receptor β (ERβ) mRNA; experiment: Semi-quantitative RT-PCR of ERβ mRNA in MCF-7 cells; format: cell-based, human; details: 100 μM
Protocol: Total RNA preparation and Reverse Transcription Polymerase Chain Reaction (RT-PCR): Total RNA from MCF-7 cells was prepared with Trizol (Invitrogen, Carlsbad, Calif.) as described before (41). For reverse transcription, 2 μg of RNA were used in a […] with random primers and M-MLV reverse transcriptase (Invitrogen, Carlsbad, Calif.), following the manufacturer's protocol. To control for possible contamination from genomic DNA in subsequent PCR reactions, control reverse transcription reactions were carried out under identical conditions, only without reverse transcriptase. After reverse transcription, 5% of the product was used in each PCR reaction. For the experiments analyzing A3 adenosine receptor (A3AR) expression, 27 cycles were used in the PCR reactions. Specific primers were designed for human A3AR, which match to two separate exons, according to genomic sequences (from GenBank). Sequences for the sense and antisense A3AR primers are: 5′tccatcatgtccttgctg3′ (SEQ ID NO: 1) and 5′gcacatgacaaccaggg3′ (SEQ ID NO.: 2). In the experiments analyzing estrogen receptor a (ERα) mRNA, semi-quantitative PCR reactions were carried out with 23 cycles for ERα primers and 19 cycles for GAPDH primers (used as a control). The cycle numbers were tested in previous experiments not to produce saturation effects. […]

CNC(=O)[C@H]1O[C@@H](n2cnc3c(NCc4cccc(I)c4)ncnc32)[C@H](O)[C@@H]1O [IB-MECA, N^6-(3-iodobenzyl)adenosine-5′-N-methyluronamide]
Effect on blood cell counts [1]: no inhibitory effect | ERα protein levels, in words [2]: Reduction of ERα protein levels | Apoptosis, in words (MCF-7 cells [3]; two days): non significant change | Apoptosis (MCF-7 cells [3]; 2 days of treatment, except adenosine (500 μM) and inosine (1 mM), number of apoptotic cells compared to vehicle control (set to 1), average ± SD): 1.12 ± 0.02 | ERα Level ([4]; 12 hours, 100 μM, except adenosine (500 μM), Western blot quantitated, vehicle control set to 1, average of two experiments): 0.23 | ERα protein level, in words ([4]; Western blot): decreased | ERα protein degradation ([4]; protein synthesis inhibited by cycloheximide 50 μg/ml, 100 μM): did not notice any significant change in ERα protein degradation | Drop of ERE promoter activity [5]: more than 5 fold | Cell counts after treatment compared to day 0, in words (T47D cells): affected more severely | Apoptosis, in words (Hs578T cells): substantial apoptosis | Thymidine incorporation decreased to (MCF-7 cells [6]): 28% | CMV promoter activity (CMV promoter): did not show any decrease in activity | Cell counts after treatment compared to day 0, in words (MCF-7 cells [7]; 100 μM, three days, trypan blue negative cells): decreased only mildly; also recorded: did not show much change in the number of viable cells | Cell Growth (MCF-7 cells [7]; 2 days of treatment, compounds at 100 μM, except adenosine (500 μM) and inosine (1 mM), normalized to vehicle control (set to 1), negative = decrease vs count before treatment, average ± SD, three experiments): −0.19 ± 0.06 | Cyclin A and B1 levels [8]: downregulated | Cyclin E levels [8]: elevated | cdk inhibitor p27 level [8]: sharp increase | Estrogen receptor β message level [9]: not significantly reduced

Reference: patent US20060100168A1, “Method of treating cancer using adenosine and its analogs” (The Trustee of Boston University, priority 2002, published 2006)
